In PubChem BioAssay AID256 (DTP/NCI, 2004):
Where “and” joins values, the source holds several entries; their conditions need not be identical. Equal entries are not always repeated. Toxic doses and inconclusive results are not listed. How the source made its calls: active means survival T/C of 150% or more; inactive means T/C below 125% in these data.

Test system: CD2F1 mice, L1210 leukemia ip, survival T/C
Assay: NCI In Vivo Anticancer Drug Screen. Data for tumor model L1210 Leukemia (intraperitoneal) in CD2F1 (CDF1) mice
Conditions: higher = longer survival
Procedure, shortened: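 Each value reflects a quotient of treated over vehicle control outcomes in mice with a transplanted tumor.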

[1] = endpoint: mean survival time, dose: 100.0 mg/kg/injection, schedule: Q01DX001 (ip), vehicle: saline with Tween-80
[2] = endpoint: mean survival time, dose: 100.0 mg/kg/injection, schedule: Q01DX009 (ip), vehicle: saline sonified
[3] = endpoint: mean survival time, dose: 200.0 mg/kg/injection, schedule: Q01DX001 (ip), vehicle: saline with Tween-80
[4] = endpoint: mean survival time, dose: 200.0 mg/kg/injection, schedule: Q01DX009 (ip), vehicle: saline sonified
[5] = endpoint: mean survival time, dose: 400.0 mg/kg/injection, schedule: Q01DX001 (ip), vehicle: saline with Tween-80
[6] = endpoint: mean survival time, dose: 200.0 mg/kg/injection, schedule: Q04DX003 (ip), vehicle: saline
[7] = endpoint: mean survival time, dose: 400.0 mg/kg/injection, schedule: Q01DX009 (ip), vehicle: saline with Tween-80
[8] = endpoint: mean survival time, dose: 100.0 mg/kg/injection, schedule: Q01DX009 (ip), vehicle: Klucel (hydroxypropylcellulose) (HPC)
[9] = endpoint: mean survival time, dose: 100.0 mg/kg/injection, schedule: Q04DX003 (ip), vehicle: Klucel (hydroxypropylcellulose) (HPC)
[10] = endpoint: mean survival time, dose: 200.0 mg/kg/injection, schedule: Q01DX009 (ip), vehicle: Klucel (hydroxypropylcellulose) (HPC)
[11] = endpoint: mean survival time, dose: 200.0 mg/kg/injection, schedule: Q04DX003 (ip), vehicle: Klucel (hydroxypropylcellulose) (HPC)
[12] = endpoint: mean survival time, dose: 400.0 mg/kg/injection, schedule: Q01DX009 (ip), vehicle: Klucel (hydroxypropylcellulose) (HPC)
[13] = endpoint: mean survival time, dose: 400.0 mg/kg/injection, schedule: Q04DX003 (ip), vehicle: Klucel (hydroxypropylcellulose) (HPC)
[14] = endpoint: mean survival time, dose: 12.5 mg/kg/injection, schedule: Q01DX009 (ip), vehicle: saline with Tween-80
[15] = endpoint: mean survival time, dose: 100.0 mg/kg/injection, schedule: Q01DX001 (ip), vehicle: saline
[16] = endpoint: mean survival time, dose: 200.0 mg/kg/injection, schedule: Q01DX001 (ip), vehicle: saline
[17] = endpoint: mean survival time, dose: 400.0 mg/kg/injection, schedule: Q01DX001 (ip), vehicle: saline
[18] = endpoint: mean survival time, dose: 25.0 mg/kg/injection, schedule: Q01DX009 (ip), vehicle: saline with Tween-80
[19] = endpoint: mean survival time, dose: 25.0 mg/kg/injection, schedule: Q04DX003 (ip), vehicle: saline
[20] = endpoint: mean survival time, dose: 50.0 mg/kg/injection, schedule: Q01DX009 (ip), vehicle: saline with Tween-80
[21] = endpoint: mean survival time, dose: 50.0 mg/kg/injection, schedule: Q04DX003 (ip), vehicle: saline
[22] = endpoint: mean survival time, dose: 12.5 mg/kg/injection, schedule: Q04DX002 (ip), vehicle: Klucel (hydroxypropylcellulose) (HPC)
[23] = endpoint: mean survival time, dose: 100.0 mg/kg/injection, schedule: Q04DX003 (ip), vehicle: saline with Tween-80
[24] = endpoint: mean survival time, dose: 200.0 mg/kg/injection, schedule: Q04DX003 (ip), vehicle: saline with Tween-80
[25] = endpoint: mean survival time, dose: 400.0 mg/kg/injection, schedule: Q04DX003 (ip), vehicle: saline with Tween-80

Measured: T/C

CC(=O)Nc1ccc(S(=O)(=O)N(CCO)CCO)cc1
inactive: [1] 100 % of control | [2] 100 % of control | [3] 102 % of control | [4] 95 % of control | [5] 98 % of control | endpoint: mean survival time, dose: 400.0 mg/kg/injection, schedule: Q01DX009 (ip), vehicle: saline sonified 97 % of control

NCCS/C=C/C(=O)O
inactive: endpoint: mean survival time, dose: 100.0 mg/kg/injection, schedule: Q04DX003 (ip), vehicle: saline 97 % of control | [6] 109 % of control | endpoint: mean survival time, dose: 400.0 mg/kg/injection, schedule: Q04DX003 (ip), vehicle: saline 101 % of control

c1ccc2cc(-c3cc4ccccc4s3)ccc2c1
inactive: endpoint: mean survival time, dose: 264.0 mg/kg/injection, schedule: Q01DX009 (ip), vehicle: saline with Tween-80 104 % of control | [7] 98 % of control

CC(CCC(=O)c1ccccc1)c1ccc2ccccc2c1 (stereo not given)
inactive: [8] 92 % of control | [9] 106 % of control | [10] 100 % of control | [11] 104 % of control | [12] 96 % of control | [13] 97 % of control

O=[N+]([O-])/C=C/c1cc2ccccc2[nH]1
inactive: endpoint: mean survival time, dose: 100.0 mg/kg/injection, schedule: Q04DX003 (ip), vehicle: acetone 94 % of control | endpoint: mean survival time, dose: 200.0 mg/kg/injection, schedule: Q04DX003 (ip), vehicle: acetone 94 % of control | endpoint: mean survival time, dose: 400.0 mg/kg/injection, schedule: Q04DX003 (ip), vehicle: acetone 105 % of control

S=C1OC(c2ccccc2)(c2ccccc2)c2ccsc21
inactive: endpoint: mean survival time, dose: 25.0 mg/kg/injection, schedule: Q01DX001 (ip), vehicle: saline with Tween-80 95 % of control | endpoint: mean survival time, dose: 50.0 mg/kg/injection, schedule: Q01DX001 (ip), vehicle: saline with Tween-80 95 % of control

CN(C)CC[CH2][Sn]([CH3])([CH3])[CH3]
inactive: endpoint: mean survival time, dose: 3.12 mg/kg/injection, schedule: Q01DX009 (ip), vehicle: saline with Tween-80 104 % of control | endpoint: mean survival time, dose: 6.25 mg/kg/injection, schedule: Q01DX009 (ip), vehicle: saline with Tween-80 100 % of control | [14] 90 % of control

O=C(/C=C(\Cl)C(=O)NO)NO
inactive: endpoint: mean survival time, dose: 6.25 mg/kg/injection, schedule: Q01DX009 (ip), vehicle: saline 101 % of control and 103 % of control | endpoint: mean survival time, dose: 12.5 mg/kg/injection, schedule: Q01DX009 (ip), vehicle: saline 94 % of control and 104 % of control | endpoint: mean survival time, dose: 25.0 mg/kg/injection, schedule: Q01DX009 (ip), vehicle: saline 95 % of control and 100 % of control | endpoint: mean survival time, dose: 50.0 mg/kg/injection, schedule: Q01DX009 (ip), vehicle: saline 115 % of control and 108 % of control | endpoint: mean survival time, dose: 100.0 mg/kg/injection, schedule: Q01DX009 (ip), vehicle: saline 113 % of control and 95 % of control

Cc1ccc(S(=O)(=O)SCC(=O)c2ccc([N+](=O)[O-])cc2)cc1
inactive: [15] 94 % of control | [2] 96 % of control | [16] 92 % of control | [4] 97 % of control | [17] 92 % of control

COc1ccc(OC)c(C(=O)C[n+]2ccccc2)c1
inactive: [14] 101 % of control | endpoint: mean survival time, dose: 12.5 mg/kg/injection, schedule: Q04DX003 (ip), vehicle: saline 106 % of control | [18] 103 % of control | [19] 109 % of control | [20] 100 % of control | [21] 111 % of control

CCC(C)(CC(=O)OC)C(=O)OC (stereo not given)
inactive: [15] 108 % of control | [16] 104 % of control | [17] 108 % of control

C1=C[S+](c2ccccc2)C(c2ccccc2)c2ccccc21 (stereo not given)
inactive: [22] 106 % of control | endpoint: mean survival time, dose: 25.0 mg/kg/injection, schedule: Q04DX002 (ip), vehicle: Klucel (hydroxypropylcellulose) (HPC) 115 % of control

COc1ccc(-c2nc3cc(Cl)ccc3c(=O)o2)cc1
inactive: [23] 88 % of control | [24] 91 % of control | [25] 88 % of control

CC(C)(C)C1=CC(=O)C(C#N)=C(C#N)C1=O
inactive: [18] 96 % of control

COC1CC2C=C(C)/C=C/C=C/C(=O)NC(c3ccccc3)C/C=C/CCC(O)CC(=O)C2=C1O (stereo not given)
inactive: endpoint: median survival time, dose: 3.12 mg/kg/injection, schedule: Q01DX009 (ip), vehicle: Klucel (hydroxypropylcellulose) (HPC) 108 % of control | endpoint: median survival time, dose: 6.25 mg/kg/injection, schedule: Q01DX009 (ip), vehicle: Klucel (hydroxypropylcellulose) (HPC) 111 % of control | endpoint: median survival time, dose: 12.5 mg/kg/injection, schedule: Q01DX009 (ip), vehicle: Klucel (hydroxypropylcellulose) (HPC) 101 % of control

CC1(C)N=C(N)N=C(N)N1c1ccc(C(=O)c2ccccc2)cc1
inactive: [23] 91 % of control

COc1ccc(COC(=O)Oc2ccc(C)cc2)cc1OC
inactive: endpoint: mean survival time, dose: 100.0 mg/kg/injection, schedule: Q01DX009 (ip), vehicle: saline with Tween-80 100 % of control | endpoint: mean survival time, dose: 200.0 mg/kg/injection, schedule: Q01DX009 (ip), vehicle: saline with Tween-80 102 % of control | [7] 98 % of control

OCCN1CCN(CCCN2c3ccccc3Sc3ccc(Cl)cc32)CC1
inactive: endpoint: mean survival time, dose: 6.25 mg/kg/injection, schedule: Q01DX009 (ip), vehicle: Klucel (hydroxypropylcellulose) (HPC) 93 % of control | endpoint: mean survival time, dose: 6.25 mg/kg/injection, schedule: Q04DX002 (ip), vehicle: Klucel (hydroxypropylcellulose) (HPC) 96 % of control | endpoint: mean survival time, dose: 12.5 mg/kg/injection, schedule: Q01DX009 (ip), vehicle: Klucel (hydroxypropylcellulose) (HPC) 96 % of control | [22] 91 % of control | endpoint: mean survival time, dose: 25.0 mg/kg/injection, schedule: Q01DX009 (ip), vehicle: Klucel (hydroxypropylcellulose) (HPC) 116 % of control | [19] 108 % of control and 110 % of control | endpoint: mean survival time, dose: 25.0 mg/kg/injection, schedule: Q04DX009 (ip), vehicle: Klucel (hydroxypropylcellulose) (HPC) 113 % of control | [21] 110 % of control | [6] 116 % of control

COC(OC)C1C=CC=CC=C1
inactive: endpoint: mean survival time, dose: 100.0 mg/kg/injection, schedule: Q04DX003 (ip), vehicle: saline sonified 92 % of control | endpoint: mean survival time, dose: 200.0 mg/kg/injection, schedule: Q04DX003 (ip), vehicle: saline sonified 94 % of control | endpoint: mean survival time, dose: 400.0 mg/kg/injection, schedule: Q04DX003 (ip), vehicle: saline sonified 90 % of control

COc1ccccc1/C=N/NC(=O)c1ccccc1
inactive: [8] 102 % of control | [9] 91 % of control | [10] 96 % of control | [11] 96 % of control | [12] 108 % of control | [13] 94 % of control

c1ccc2c(NC3=NCCO3)c3ccccc3nc2c1
inactive: endpoint: mean survival time, dose: 12.5 mg/kg/injection, schedule: Q04DX003 (ip), vehicle: saline with Tween-80 93 % of control | endpoint: mean survival time, dose: 25.0 mg/kg/injection, schedule: Q04DX003 (ip), vehicle: saline with Tween-80 96 % of control

COc1ccc(NC2=C(C)C(=O)C3=C(C2=O)[C@H](COC(N)=O)[C@]2(OC)[C@@H]4N[C@@H]4CN32)cc1
active: endpoint: mean survival time, dose: 24.0 mg/kg/injection, schedule: Q01DX001 (ip), vehicle: water 153 % of control
inactive: endpoint: mean survival time, dose: 1.5 mg/kg/injection, schedule: Q01DX001 (ip), vehicle: water 107 % of control | endpoint: mean survival time, dose: 3.0 mg/kg/injection, schedule: Q01DX001 (ip), vehicle: water 118 % of control and 110 % of control | endpoint: mean survival time, dose: 6.0 mg/kg/injection, schedule: Q01DX001 (ip), vehicle: water 117 % of control and 111 % of control | endpoint: mean survival time, dose: 12.0 mg/kg/injection, schedule: Q01DX001 (ip), vehicle: water 124 % of control | endpoint: mean survival time, dose: 48.0 mg/kg/injection, schedule: Q01DX001 (ip), vehicle: water 124 % of control

CN(C)/C=C1\NC(=S)NC1=O
inactive: [1] 95 % of control | [3] 91 % of control | [5] 91 % of control

O=C(O)CN(CC(=O)O)CC(O)CN(CC(=O)O)CC(=O)O
inactive: [15] 98 % of control | [16] 105 % of control | [17] 93 % of control

CC(C)(C)c1cc(C(C)(C)C)c(C(=O)O)c(C(C)(C)C)c1Cl
inactive: [23] 101 % of control | [24] 97 % of control | [25] 100 % of control

CSCCCCCCSC
inactive: [23] 95 % of control | [24] 101 % of control

Nc1nc(N)c2ncn(C3CC(CO)C(O)C3O)c2n1 (stereo not given)
inactive: [20] 89 % of control
